Common to all, as to type: cell-based
The subject of one test is Erg11. Briefly: HPLC analysis for lanosterol and ergosterol in fluconazole-treated wild-type yeast cultures. The following applies: wild-type yeast cultures treated for eight hours, normalized to optical density at 600 nm. How it is done: (§1) (FIG. 1A) Structure of the Erg11 inhibitor and anti-fungal, fluconazole. […] A 2-fold serial dilution of fluconazole was applied to TDP-43-expressing yeast for 24 hours prior to analysis. (FIG. 1C) Wild-type yeast cultures were treated with fluconazole for eight hours prior to HPLC analysis for lanosterol and ergosterol. Data are expressed as the area under the curve (AUC) normalized to cell mass based on optical density of cultures at 600 nm.
Fluconazole is an antifungal known to inhibit Erg11, the yeast lanosterol 14-alpha demethylase (FIG. 1B). […] CYP51A1 has also been known as lanosterol 14-alpha demethylase, which describes its function in removing the 14-alpha-methyl group from lanosterol to generate 4,4-dimethylcholesta-8(9),14,24-trien-3β-ol, which is a critical step in the cholesterol biosynthetic pathway.

The test system of another test is TDP-43-expressing yeast. Briefly: Yeast TDP-43 model viability (resazurin-reduction endpoint). The following applies: 2-fold serial dilution applied for 24 hours. Here is the method:
as §1
The toxic gain of function features of TDP-43 can be faithfully recapitulated in the simple model organism, budding yeast, where the protein also localizes to stress granules. […] The yeast model thus provides a robust cell-based screening platform for small molecules capable of ameliorating toxicity. To validate compounds from such phenotypic screens, it is imperative to test compounds in a mammalian neuronal context. In an effort to develop TDP-43-related mammalian models of neuron loss that occurs in ALS and FTD, primary cultures of rat cortical neurons were transfected with human wild type or Q331K mutant TDP-43. These cells were compared to cells which received an empty expression vector control. […] In the experiments described in this example, this model system is used to interrogate new therapeutic approaches to ameliorate TDP-43 toxicity.
Fluconazole is an antifungal known to inhibit Erg11, the yeast lanosterol 14-alpha demethylase (FIG. 1B). […]
For orientation: The colour change of resazurin is a common sign of viable cells or microbes.

Test [1] relates to primary rat cortical neurons transfected with Q331K Mutant TDP-43. Briefly: Survival of primary rat cortical neurons transfected with Q331K mutant TDP-43. The following applies: rat primary cortical neurons co-transfected with RFP and Q331K mutant TDP-43; titration of compound; cox regression. How it is done: (§2) Rat primary cortical neurons were co-transfected with a red fluorescent protein (RFP) as a morphological marker and either control (empty vector) or Q331K mutant TDP-43 expression plasmids and treated with vehicle (DMSO) or a titration of compound (3). (FIG. 4A) Risk of neuron death plots. The lifetime of each neuron was determined by either loss of RFP signal or morphological indicators of death such as loss of neurites and cell blebbing and used to generate cumulative hazard plots of risk of death over time (hrs) post-transfection. (FIG. 4B) Forest plots. Hazard ratios for each treatment group (relative to TDP-43 DMSO group) were determined by cox regression analysis and used to generate forest plots. […] P, p-value.
The toxic gain of function features of TDP-43 can be faithfully recapitulated in the simple model organism, budding yeast, where the protein also localizes to stress granules. […] The yeast model thus provides a robust cell-based screening platform for small molecules capable of ameliorating toxicity. To validate compounds from such phenotypic screens, it is imperative to test compounds in a mammalian neuronal context. In an effort to develop TDP-43-related mammalian models of neuron loss that occurs in ALS and FTD, primary cultures of rat cortical neurons were transfected with human wild type or Q331K mutant TDP-43. […]

The subject of test [2] is primary rat cortical neurons transfected with wild-type TDP-43. Briefly: Survival of primary rat cortical neurons transfected with wild-type TDP-43. The following applies: rat primary cortical neurons co-transfected with RFP and wild-type human TDP-43; titration of compound; cox regression. How it is done: as §2, with “wild-type” for “Q331K mutant”, “3A)” for “4A)”, “3B)” for “4B)”
Rat primary cortical neurons were co-transfected with a red fluorescent protein (RFP) as a morphological marker and either control (empty vector) or wild type TDP-43 expression plasmids and treated with vehicle (DMSO) or a titration of compound (4). […] The lifetime of each neuron was determined by either loss of RFP signal or morphological indicators of death such as loss of neurites and cell blebbing and used to generate cumulative hazard plots of risk of death over time (hrs) post-transfection. […] Hazard ratios for each treatment group (relative to TDP-43 DMSO group) were determined by cox regression analysis and used to generate forest plots. […]

Here are results for three molecules from patent publication US11241417B2, “Compositions and methods for the treatment and prevention of neurological disorders” (Yumanity Therapeutics, Inc., priority 2018, dated 2022).

Entries after “also recorded” stand apart in the source; their conditions may differ.

As for `OC(Cn1cncn1)(Cn1cncn1)c1ccc(F)cc1F` [Fluconazole], in the test with Erg11, the “ergosterol (AUC normalized to cell mass)” value is “reduces ergosterol” and the “lanosterol (AUC normalized to cell mass)” value is given as “increase in the Erg11 substrate, lanosterol”. Moreover, in the test on TDP-43-expressing yeast, the “viability of TDP-43-expressing yeast” value is reported as “restored viability; also recorded: rescues viability”.
For the molecule `CCCN(CCc1ccc(Cl)c(Cl)c1)CC(O)c1cccnc1` (stereo not drawn) [compound (3)], the figures for the “neuron survival (risk of neuron death, hazard ratio relative to TDP-43 DMSO group)” value in test [1] and in test [2] were “promotes survival” and “reduction in survival was partially alleviated; also recorded: promotes survival”, respectively.
For the molecule `O=C(N[C@@H](Cc1ccc(F)cc1)C(=O)N1CCC(O)CC1)c1cc2cc(Cl)ccc2[nH]1` [compound (4)], the “neuron survival (risk of neuron death, hazard ratio relative to TDP-43 DMSO group)” value in test [2] is listed as “promotes survival”.
